Data: patent publication US12037336B2, “Compounds with activity as inhibitors of the epithelial sodium channel (ENaC)” (Enterprise Therapeutics Limited, priority 2018, dated 2024)
Where a name gives a salt, the structure may show the parent alone.

Molecular target: T1, ENaC (Homo sapiens, UniProt P37088+P51168+P51170)
T1 construct: host or cells: primary human bronchial epithelial cells (HBECs), differentiated at an air-liquid interface
T1 sequence (P37088 1-669): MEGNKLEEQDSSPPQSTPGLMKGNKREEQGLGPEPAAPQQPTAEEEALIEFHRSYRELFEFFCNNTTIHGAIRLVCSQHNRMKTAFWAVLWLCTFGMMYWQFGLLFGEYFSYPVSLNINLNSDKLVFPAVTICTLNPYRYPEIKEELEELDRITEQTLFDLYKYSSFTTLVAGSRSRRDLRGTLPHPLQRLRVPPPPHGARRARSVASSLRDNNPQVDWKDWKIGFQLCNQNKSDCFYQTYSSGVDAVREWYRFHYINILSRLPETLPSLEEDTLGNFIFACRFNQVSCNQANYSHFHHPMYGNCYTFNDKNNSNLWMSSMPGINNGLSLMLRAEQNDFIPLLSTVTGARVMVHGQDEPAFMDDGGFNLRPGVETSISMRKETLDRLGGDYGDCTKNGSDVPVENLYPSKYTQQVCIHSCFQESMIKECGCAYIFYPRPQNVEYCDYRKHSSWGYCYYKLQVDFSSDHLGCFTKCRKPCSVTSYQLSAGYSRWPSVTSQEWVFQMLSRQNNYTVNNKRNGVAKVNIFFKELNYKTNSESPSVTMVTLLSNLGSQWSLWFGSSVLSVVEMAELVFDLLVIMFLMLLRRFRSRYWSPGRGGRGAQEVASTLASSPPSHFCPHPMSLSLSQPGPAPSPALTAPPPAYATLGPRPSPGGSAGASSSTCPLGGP
T1 sequence (P51168 1-640): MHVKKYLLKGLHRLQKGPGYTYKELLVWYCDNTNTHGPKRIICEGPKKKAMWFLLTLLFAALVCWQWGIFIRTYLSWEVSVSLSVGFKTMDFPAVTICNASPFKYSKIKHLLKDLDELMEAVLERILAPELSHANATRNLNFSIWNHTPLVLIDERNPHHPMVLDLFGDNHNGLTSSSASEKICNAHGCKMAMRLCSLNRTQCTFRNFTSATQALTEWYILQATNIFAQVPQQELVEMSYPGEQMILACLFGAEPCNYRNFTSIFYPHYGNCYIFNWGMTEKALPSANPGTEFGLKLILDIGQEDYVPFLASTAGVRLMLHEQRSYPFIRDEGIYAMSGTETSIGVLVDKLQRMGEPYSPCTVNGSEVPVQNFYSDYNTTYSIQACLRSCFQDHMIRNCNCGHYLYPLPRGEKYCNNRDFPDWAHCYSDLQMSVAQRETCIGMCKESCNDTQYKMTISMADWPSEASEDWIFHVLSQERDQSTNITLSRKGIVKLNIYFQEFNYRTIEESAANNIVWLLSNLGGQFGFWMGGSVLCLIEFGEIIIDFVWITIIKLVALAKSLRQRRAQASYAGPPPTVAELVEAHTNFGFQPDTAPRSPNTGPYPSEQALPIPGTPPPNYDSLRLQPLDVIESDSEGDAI
T1 sequence (P51170 1-649): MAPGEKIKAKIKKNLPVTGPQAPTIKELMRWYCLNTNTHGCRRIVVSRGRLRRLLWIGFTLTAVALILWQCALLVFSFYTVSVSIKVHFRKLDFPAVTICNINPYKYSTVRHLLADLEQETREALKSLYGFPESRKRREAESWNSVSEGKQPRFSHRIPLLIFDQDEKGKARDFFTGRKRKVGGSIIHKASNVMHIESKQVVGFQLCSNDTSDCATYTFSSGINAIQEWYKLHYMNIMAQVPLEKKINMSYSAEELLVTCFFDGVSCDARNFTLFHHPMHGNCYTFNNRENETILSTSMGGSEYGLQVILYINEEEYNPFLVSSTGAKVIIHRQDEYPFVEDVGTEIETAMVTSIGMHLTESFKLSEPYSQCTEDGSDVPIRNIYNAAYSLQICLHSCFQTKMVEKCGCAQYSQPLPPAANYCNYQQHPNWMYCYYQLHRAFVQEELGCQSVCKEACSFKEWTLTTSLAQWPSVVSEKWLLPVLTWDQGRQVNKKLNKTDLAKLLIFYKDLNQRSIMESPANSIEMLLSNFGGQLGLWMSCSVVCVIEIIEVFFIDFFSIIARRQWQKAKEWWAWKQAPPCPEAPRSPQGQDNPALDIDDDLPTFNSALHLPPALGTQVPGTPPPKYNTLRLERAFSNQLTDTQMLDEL
Assay: Short circuit current assay to determine ENaC blocker potency in human bronchial epithelial cells
Format: cell-based
Settings: 50% inhibition of the total amiloride-sensitive short-circuit current (ISC) in human bronchial epithelial cells (HBECs) at air-liquid interface; apical addition; read-out: Averages · ENaC IC50 (nM) Avg
Description: Example 6 Short circuit current assay to determine ENaC blocker potency in human bronchial epithelial cells
Cell culture Human bronchial epithelial cells (HBECs) (Lonza, UK) were cultured using a modification of the method described by Coote et al, (2008). Cells were seeded into plastic T-75 flasks and grown in Bronchial Epithelial Cell Growth Medium (BEGM) (Lonza, UK) supplemented with bovine pituitary extract (52 ng/mL), hydrocortisone (0.5 μg/mL), human recombinant Epidermal Growth Factor (0.5 ng/mL), epinephrine (0.5 ng/mL), transferrin (10 ng/mL), insulin (5 ng/mL), retinoic acid (0.1 ng/mL), triiodothyronine (6.5 ng/mL), gentamycin (50 μg/mL) and amphotericin-B (50 ng/mL). Medium was changed every 48 hours until cells were 90% confluent. Cells were then passaged and seeded (8.25×10^5 cells/insert) onto polycarbonate Snapwell™ inserts (Costar, UK) in differentiation media containing 50% DMEM in BGEM with the same supplements as above but without triiodothyronine and a final retinoic acid concentration of 50 nM (all-trans retinoic acid; Sigma-Aldrich, UK). Cells were maintained submerged for the first 7 days in culture after which time they were exposed to an apical air interface for the remainder of the culture period. From the first day of establishment of an ALI, HBEC were fed with a DMEM:HAMS F-12 (1:1) media containing 2% Ultroser G (Pall BioSepra, France) with gentamycin (50 μg/mL) and amphotericin B (50 ng/mL). Cells were used for short-circuit current assay between days 14-21 after the establishment of the ALI. At all stages of culture, cells were maintained at 37° C. in 5% CO2 in an air incubator.
Short-Circuit Current (ISC) Measurements
Snapwell inserts were mounted in Costar Vertical Diffusion Chambers (Costar, UK) and were bathed with continuously gassed Ringer solution (5% CO2 in O2; pH 7.4) maintained at 37° C. containing (in mM): 120 NaCl, 25 NaHCO3, 3.3 KH2PO4, 0.8 K2HPO4, 1.2 CaCl2, 1.2 MgCl2 and 10 glucose. The solution osmolarity was always between 280-300 mOsm/kg H2O for all physiological salt solutions used. Cells were voltage clamped to 0 mV (model EVC4000, WPI). Transepithelial resistance (RT) was measured by applying a 2 mV pulse at 30 s intervals and calculating RT by Ohm's law. Data were recorded using a PowerLab workstation (ADInstruments, UK).
ENaC blocker compounds were added to the apical chamber from a 1000-fold stock solution (prepared in DMSO) to achieve a cumulative concentration response in terms of the inhibition of the basal ISC. At the completion of the concentration response, a supra-maximal concentration of amiloride (10 μM) was added. The concentration of test compound that induced a 50% inhibition of the total amiloride-sensitive ISC (IC50) was calculated using GraphPad Prism v6.05. […]

IC50 [nM]	SMILES
2	CCn1c(CNC(=O)c2nc3c(C)n[nH]c3nc2N)[n+](CC)c2ccc(OC)cc21 [Example 1, 2-[({6-amino-3-methyl-1H-pyrazolo[3,4-b]pyrazin-5-yl}formamido)methyl]-1,3-diethyl-6-methoxy-1H-1,3-benzodiazol-3-ium trifluoroacetate]
91.5	CCn1c(CNC(=O)c2nc3c(C)n[nH]c3nc2N)[n+](CC)c2ccc(C(=O)O)cc21 [Example 2, 2-[({6-amino-3-methyl-1H-pyrazolo[3,4-b]pyrazin-5-yl}formamido)methyl]-6-carboxy-1,3-diethyl-1H-1,3-benzodiazol-3-ium formate]
106	CCn1c(CNC(=O)c2nc3cn[nH]c3nc2N)[n+](CC)c2ccc(C(=O)O)cc21 [Example 3]
47	CCn1c(CNC(=O)c2nc3cn[nH]c3nc2N)[n+](CC)c2ccc(C(=O)N3CCC(N(C[C@H](O)[C@@H](O)[C@H](O)[C@H](O)CO)C[C@H](O)[C@@H](O)[C@H](O)[C@H](O)CO)CC3)cc21 [Example 4, 2-[({6-amino-1H-pyrazolo[3,4-b]pyrazin-5-yl}formamido)methyl]-6-(4-{bis[(2S,3R,4R,5R)-2,3,4,5,6-pentahydroxyhexyl]amino}piperidine-1-carbonyl)-1,3-diethyl-1H-1,3-benzodiazol-3-ium trifluoroacetic acid trifluoroacetate]
